The values that follow come from patent US20120165319A1, “INHIBITORS OF INTERLEUKIN-1 BETA CONVERTING ENZYME” (VERTEX PHARMACEUTICALS INCORPORATED, priority 1995, published 2012).

One data set has as its target T1, ICE (Homo sapiens, UniProt P29466).
T1 sequence (P29466 120-297 limits assumed): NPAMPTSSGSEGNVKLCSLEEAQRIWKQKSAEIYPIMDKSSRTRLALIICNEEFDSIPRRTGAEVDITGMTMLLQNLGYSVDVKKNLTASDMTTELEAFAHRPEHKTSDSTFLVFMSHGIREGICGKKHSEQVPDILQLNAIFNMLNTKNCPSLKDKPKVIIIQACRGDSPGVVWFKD
T1 sequence (P29466 317-404 limits assumed): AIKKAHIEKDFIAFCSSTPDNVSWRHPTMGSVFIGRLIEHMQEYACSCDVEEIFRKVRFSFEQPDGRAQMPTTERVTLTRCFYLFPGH
Nature of the data set: Enzyme assay with UV-visible substrate (visible ICE assay, Succinyl-Tyr-Val-Ala-Asp-pNitroanilide). As to conditions: Table 17. In kind it is biochemical. Put shortly:
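Human ICE was preincubated with inhibitor in DMSO and buffer for 15 min at room temperature, then succinyl-Tyr-Val-Ala-Asp-pNA was added. pNA release was followed at 405-603 nm for 20 min at 37° C. Ki and inhibition mode came from fitting rates to standard kinetic equations.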

For data set [1], the system named is IL-1β, human peripheral blood mononuclear cells (PBMC). Nature of the data set: PBMC cell assay: IL-1β assay with human PBMC or enriched adherent mononuclear cells, LPS-stimulated. Format: cell-based. The conditions noted are these: Homo sapiens, PBMC, Table 17. In outline: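 Mature IL-1β is measured by ELISA in supernatants after 16–18 hr at 37 °C, 5% CO2, with LPS (5 ng/ml final) and test compound (0.1% DMSO final). Cells are human PBMC (6×10^6 cells/ml) or plate-adherent mononuclear cells (2.5−3.0×10^5 per well), and the 5–6 compound concentrations span the ICE Ki.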

Data set [2] can be described thus: In vivo rat clearance assay. The conditions noted are these: plasma, iv, Table 17. The protocol:
In Vivo Rat Clearance Assay
Cannulations of the jugular and carotid vessels of rats under anesthesia were performed one day prior to the pharmacokinetic study. M. J. Free, R. A. Jaffee; ‘Cannulation techniques for the collection blood and other bodily fluids’; in: Animal Models; p. 480-495; N. J. Alexander, Ed.; Academic Press; (1978). Drug (10 mg/mL) was administered via the jugular vein in a vehicle usually consisting of: propylene glycol/saline, containing 100 mM sodium bicarbonate in a 1:1 ratio. Animals were dosed with 10-20 mg drug/kg and blood samples were drawn at 0, 2, 5, 7, 10, 15, 20, 30, 60, and 90 minutes from an indwelling carotid catheter. The blood was centrifuged to plasma and stored at −20° C. until analysis. Pharmacokinetic analysis of data was performed by non-linear regression using standard software such as RStrip (MicroMath Software, UT) and/or Pcnonlin (SCI Software, NC) to obtain clearance values.
Rat plasma was extracted with an equal volume of acetonitrile (containing 0.1% TFA). Samples were then centrifuged at approximately 1,000×g and the supernatant analyzed by gradient HPLC. A typical assay procedure is described below.
A standard curve was run at 20, 10, 5, 2 and 1 μg/mL concentrations.

For a further data set, the system named is IL-1β, human whole blood. Nature of the data set: Whole blood assay for IL-1β production. Format: cell-based. As to conditions: Homo sapiens, Table 17; read-out: Whole human blood IC50. In outline: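 IL-1β was quantified by ELISA in plasma diluted 1:200. The plasma came from EDTA-anticoagulated human whole blood incubated at 30 °C for 16-18 h with LPS (final 5.0 ng/ml) plus a saline serial dilution of compound. Controls were no-LPS, no-inhibitor and highest-vehicle.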

Data set [3] concerns IL-1β production, LPS-challenged mice. Nature of the data set: In vivo acute assay for efficacy as anti-inflammatory agent: LPS-induced IL-1β production in mice. More on the design: species or system mouse. The conditions noted are these: Mus musculus, po, LPS challenged mice, compound PO, 50 mg/kg, read-out: percent inhibition of IL-1β production. In outline:
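Serum IL-1β was measured by ELISA 7 h after an IP dose of 20 mg/kg LPS in CD1 mice, n=6 per group. Compounds in olive oil/DMSO/ethanol 90:5:5 were injected IP 1 h post-LPS (some analogs were dosed at challenge), and separate groups received 50 mg/kg by oral gavage.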

The mark [4] stands for this setting: 0 h, administered 0 h relative to time of LPS challenge.
Where [5] appears, read: 2 h, administered −2 h relative to time of LPS challenge.

The structures appear in SMILES notation. pIC50, pKi: −log10 of the molar value. Like-named read-outs stand apart in the source and are kept apart here.

On to `COc1ccc(C(=O)NN2CCC(=O)N3CCC[C@@H](C(=O)N[C@H](C=O)CC(=O)O)N3C2=O)cc1` [Compound 1052, [3S(4S)]3-[6,10-Dioxo-7-(4-methoxybenzoylamino)-octahydro-6H-pyridazino[1,2-a][1,2,4]triazepine-4-carboxamido]-4-oxobutanoic acid], for which the melting point fell in the range of 138 to 142 °C. For the same compound, the negative logarithm of the Ki (pKi) at ICE was 7.00. The compound also showed a pIC50 in data set [1] of 5.60. In addition, the clearance in data set [2] was 16 mL/min/kg.
Compound `O=C[C@H](CC(=O)O)NC(=O)[C@@H]1CCCN2C(=O)CCN(NC(=O)Nc3ccccc3)C(=O)N12` [Compound 265f, [3S(4S)]3-[6,10-Dioxo-1,2,3,4,7,8,9,10-octahydro-7-(3-phenylureido)-6H-pyridazino[1,2-a][1,2,4]triazepine-4-carboxamido]-4-oxobutanoic acid] yielded a melting point of 157 to 162 °C. The compound also had a pKi on ICE of 5.92. Further, the clearance in data set [2] came to 24 mL/min/kg.
The compound `COC(=O)N[C@H]1CCC(=O)N2CCC[C@@H](C(=O)N[C@@H](CC(=O)O)C(=O)COc3cccnc3)N2C1=O` [Compound 283c, [3S(1S,9S)]3-[6,10-Dioxo-9-(methoxycarbonylamino)-1,2,3,4,7,8,9,10-octahydro-6H-pyridazino[1,2-a][1,2]diazepine-1-carboxamido]-4-oxo-5-(3-pyridinyloxy)pentanoic acid] had a melting point of 90 to 105 °C. Further, the pIC50 in data set [1] is 5.40. In addition, the clearance in data set [2] is 50 mL/min/kg.
`O=C1C[C@H](NC(=O)[C@@H]2CCCN3C(=O)CC[C@H](NC(=O)c4ccccc4)C(=O)N23)C(OC2CCCC2)O1` (stereo partly drawn) [Compound 2100l, [1S,9S(2RS,3S)]9-Benzamido-N-(2-cyclopentyloxy-5-oxo-tetrahydrofuran-3-yl)-6,10-dioxo-1,2,3,4,7,8,9,10-octahydro-6H-pyridazino[1,2-a][1,2]diazepine-1-carboxamide] registered a melting point of 172 to 180 °C. The negative-log IC50 (pIC50) in data set [1] is 6.12. Moreover, in the data set with IL-1β, human whole blood, the negative-log IC50 (pIC50) is 5.66. In addition, the inhibition at 50 mg/kg in data set [3] (setting [4]) stood at 28%. Also, the inhibition at 50 mg/kg in data set [3] (setting [5]) is 52%.
Take `COC(=O)N[C@H]1CCC(=O)N2CCC[C@@H](C(=O)N[C@@H](CC(=O)O)C(=O)CSc3nnnn3-c3ccccc3)N2C1=O` [Compound 280c, [3S(1S,9S)]3-[6,10-Dioxo-9-(methoxycarbonylamino)-1,2,3,4,7,8,9,10-octahydro-6H-pyridazino[1,2-a][1,2]diazepine-1-carboxamido]-4-oxo-5-[5-(1-phenyltetrazolyl)-thio]pentanoic acid]: the melting point is 105 to 130 °C. In data set [1], this compound showed a pIC50 of 5.00. For the same compound, the clearance in data set [2] was determined as 86 mL/min/kg.
As for `O=C[C@H](CC(=O)O)NC(=O)[C@@H]1CCCN2C(=O)CCN(NC(=O)c3ccc(O)cc3)C(=O)N12` [Compound 1056, [3S(4S)]3-[6,10-Dioxo-7-(4-hydroxybenzoylamino)-1,2,3,4,7,8,9,10-octahydro-6H-pyridazino[1,2-a][1,2,4]triazepine-4-carboxamido]-4-oxobutanoic acid], the melting point was > 300 °C. Besides, the negative logarithm of the Ki (pKi) on ICE was 6.77. Besides, in data set [2], the clearance is 17 mL/min/kg.
As to `CCOC1OC(=O)C[C@@H]1NC(=O)[C@@H]1CCCN2C(=O)CC[C@H](NC(=O)c3cc4ccccc4[nH]3)C(=O)N12` (stereo partly drawn) [Compound 550o, [1S,9S(2RS,3S)]6,10-Dioxo-N-(2-ethoxy-5-oxotetrahydrofuran-3-yl)-9-(2-indoloylamino)-1,2,3,4,7,8,9,10-octahydro-6H-pyridazino[1,2-a][1,2]diazepine-1-carboxamide], the melting point was in the range of 155 to 170 °C. Besides, in data set [1], the negative-log IC50 (pIC50) was 6.35. In addition, the pIC50 with IL-1β, human whole blood is 5.52. Besides, in data set [3] (setting [4]), the inhibition at 50 mg/kg came to 64%. In addition, the inhibition at 50 mg/kg in data set [3] (setting [5]) turned out to be 19%.
